In patent US20180185347A1, “TETRAHYDROCYCLOPENTA[B]INDOLE COMPOUNDS AND PHOSPHODIESTERASE INHIBITORS FOR THE TREATMENT OF THE SIGNS AND SYMPTOMS OF BHP” (Transition Therapeutics (Ireland 2) Limited, priority 2016, published 2018):
“Also recorded” adds a separate entry of the source.

What was measured:
PSA levels [1] = details: healthy volunteers, any time point or dose, data of WO 2016040234; cited from earlier work
Dog bioavailability = type: in vivo
orchidectomized rats = test: Testosterone induced prostate / seminal vesicle growth in delayed ORX rat model; type: in vivo
From the text: Orchidectomized (ORX) and sham-operated Wistar male rats were used (orchidectomized at 8 weeks of age and allowed to waste for 4 weeks). […] Rats were randomized and placed into treatment groups (n=6) based on body weight. Route of administration for all groups except testosterone enanthate (TE was given sub-cutaneously) was oral. At the end of 2 weeks of daily rats were euthanized, weighed & tissue harvested. Levator ani, prostates, and seminal vesicles were collected from each animal. Results are plotted as means±SE.

LnCAP cells = test: LnCAP gene expression; type: cell-based; details: Homo sapiens, read-out: LnCAP Gene Expression EC50 (nM) AR
[2] = Clinical safety and laboratory parameters; details: for hemoglobin and hematocrit: any dose tested, 12 weeks
Rat bioavailability = type: in vivo
[3] = target: T1, serum hormone binding globulin (Homo sapiens, UniProt P04278); test: Affinity to serum hormone binding globulin; details: at 10 μM
T1 sequence (P04278 30-402): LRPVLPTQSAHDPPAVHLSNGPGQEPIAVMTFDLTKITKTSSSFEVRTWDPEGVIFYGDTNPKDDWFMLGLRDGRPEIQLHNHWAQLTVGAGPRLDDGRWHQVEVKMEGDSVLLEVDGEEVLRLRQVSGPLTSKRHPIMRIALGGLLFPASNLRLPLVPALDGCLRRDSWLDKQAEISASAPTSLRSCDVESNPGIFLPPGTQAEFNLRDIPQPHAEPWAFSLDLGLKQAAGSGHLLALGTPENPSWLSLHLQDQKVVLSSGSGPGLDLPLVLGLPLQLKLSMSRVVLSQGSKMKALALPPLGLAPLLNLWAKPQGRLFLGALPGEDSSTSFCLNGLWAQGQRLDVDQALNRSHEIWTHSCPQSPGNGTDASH

rats = test: Rat toxicology program: prostate weight and atrophy; type: in vivo; set-up: key: “”: no effect observed
[4] = target: T2, human androgen receptor (hAR) (Homo sapiens, UniProt P10275); test: AR binding affinity (Ki)
T2 sequence (P10275 1-920): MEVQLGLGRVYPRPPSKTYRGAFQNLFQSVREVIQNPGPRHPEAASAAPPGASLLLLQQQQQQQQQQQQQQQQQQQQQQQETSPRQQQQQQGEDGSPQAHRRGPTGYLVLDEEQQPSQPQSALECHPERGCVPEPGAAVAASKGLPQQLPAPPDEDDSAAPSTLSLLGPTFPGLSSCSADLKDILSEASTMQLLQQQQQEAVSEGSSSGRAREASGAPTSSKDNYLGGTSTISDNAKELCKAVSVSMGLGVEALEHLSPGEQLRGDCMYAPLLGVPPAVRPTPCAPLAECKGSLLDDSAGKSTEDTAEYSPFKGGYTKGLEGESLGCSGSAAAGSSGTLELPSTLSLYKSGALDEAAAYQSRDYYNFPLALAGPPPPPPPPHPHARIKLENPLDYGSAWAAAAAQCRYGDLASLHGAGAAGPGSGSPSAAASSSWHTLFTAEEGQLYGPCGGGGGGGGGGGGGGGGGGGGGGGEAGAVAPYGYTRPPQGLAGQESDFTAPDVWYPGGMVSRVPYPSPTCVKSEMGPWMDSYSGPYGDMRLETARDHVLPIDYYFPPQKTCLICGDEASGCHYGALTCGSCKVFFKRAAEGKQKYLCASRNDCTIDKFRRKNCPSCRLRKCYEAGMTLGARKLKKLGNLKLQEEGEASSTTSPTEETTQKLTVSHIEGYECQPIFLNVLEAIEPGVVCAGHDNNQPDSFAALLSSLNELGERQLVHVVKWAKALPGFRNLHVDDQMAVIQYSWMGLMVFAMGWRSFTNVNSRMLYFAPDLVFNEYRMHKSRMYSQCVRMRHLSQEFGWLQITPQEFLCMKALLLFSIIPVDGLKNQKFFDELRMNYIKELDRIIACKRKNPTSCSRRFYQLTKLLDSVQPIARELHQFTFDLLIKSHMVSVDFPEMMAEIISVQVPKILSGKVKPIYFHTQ

[5] = target: T3, 17-beta-Hydroxysteroid Dehydrogenase Type 2 (Homo sapiens, UniProt P37059); test: Metabolism by 17-beta-HSD type 2; type: in vitro ADME
T3 sequence (P37059 1-387): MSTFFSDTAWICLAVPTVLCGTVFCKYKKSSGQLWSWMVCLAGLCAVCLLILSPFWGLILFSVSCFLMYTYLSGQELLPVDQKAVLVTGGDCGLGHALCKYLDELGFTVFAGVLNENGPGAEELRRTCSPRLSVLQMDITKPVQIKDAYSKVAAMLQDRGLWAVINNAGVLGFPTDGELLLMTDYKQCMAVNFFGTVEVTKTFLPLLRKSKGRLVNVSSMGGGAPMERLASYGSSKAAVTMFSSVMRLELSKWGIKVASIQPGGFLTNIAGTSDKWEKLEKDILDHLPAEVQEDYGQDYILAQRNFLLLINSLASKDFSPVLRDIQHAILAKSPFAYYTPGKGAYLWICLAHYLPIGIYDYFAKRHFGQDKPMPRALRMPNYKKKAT

PSA levels [6] = test: PSA in ED patients failing tadalafil (Study GPEC); type: in vivo, human; details: for PSA levels: ED patients, alone or with tadalafil, PSA about 2.0 ng/ml or more
From the text: The results of this study are illustrated in FIG. 7. […] (see FIG. 8 and FIG. 9).

CC(C)OC(=O)N[C@H]1Cc2c(n(Cc3ccccn3)c3ccc(C#N)cc23)C1 [compound of Formula II, (S)-(7-cyano-4-pyridin-2-ylmethyl-1,2,3,4-tetrahydro-cyclopenta[b]indol-2-yl)-carbamic acid isopropyl ester]
PSA levels, change from baseline vs placebo (PSA levels [1]): no significant changes from baseline
bioavailability (Dog bioavailability; in vivo, read-out: Dog F %): 58%
Dog F % (Dog bioavailability; listed as TT701): 58%
prostate weights, Abs(Dif)-LSD vs ORX + TE control (orchidectomized rats; 1 mg/kg/d + 3 mg/kg/d): −0.11
seminal vesicle wet weights, Abs(Dif)-LSD vs ORX + TE control (orchidectomized rats; 1 mg/kg/d + 3 mg/kg/d): −0.34
prostate weights, Abs(Dif)-LSD vs ORX + TE control (orchidectomized rats; 1 mg/kg/d + 10 mg/kg/d): 0.036
seminal vesicle wet weights, Abs(Dif)-LSD vs ORX + TE control (orchidectomized rats; 1 mg/kg/d + 10 mg/kg/d): 0.078
prostate weights, Abs(Dif)-LSD vs ORX + TE control (orchidectomized rats; 1 mg/kg/d + 30 mg/kg/d): 0.025
prostate and seminal vesical weights normalized to body weight compared to TE alone (orchidectomized rats; ORX rat, TE 1 mg/kg/d + 3, 10 and 30 mg/kg/d, 2 weeks): decreasing prostate weight and seminal vesical weights; also recorded: reduced testosterone induced effects on prostate size
EC50 (LnCAP cells): 1.64 nM
HDL cholesterol levels and apolipoprotein A1 ([2]; Study GPEC): decreased
testosterone ([2]; Study GPEC, 12-week, elderly men, with reduction of SHBG): clinically meaningful decrease
systolic blood pressure, diastolic blood pressure, or heart rate ([2]; clinical studies): did not yield any significant changes
decrease in the levels of endogenous testosterone ([2]; clinical studies in patients with androgen deficiency): 20-30%
total bilirubin, GGT, or alkaline phosphatase ([2]; clinical studies, any dose): no significant increases
hemoglobin and hematocrit ([2]; clinical): no increases
hemoglobin and hematocrit ([2]; clinical, listed as TT701): no change in Hematocrit
immunotoxicity safety signal ([2]; clinical, to date): no immunotoxicity safety signal has been observed
dose demonstrated safe in clinical studies ([2]; human, in vivo): up to 1000 mgs/day
decrease in HDL ([2]; patients, 5 mg for 12 weeks): 20%
liver transaminases (AST or ALT) ([2]; phase 2 study, three subjects, two ≥2×ULN, one ≥3×ULN): transient abnormal AST or ALT
bioavailability (Rat bioavailability; in vivo, read-out: Rat F %): 63%
Rat F % (Rat bioavailability; listed as TT701): 63%
affinity to serum hormone binding globulin [3]: none detected
Prostate weight (mean % decrease) (rats; 1+ months, 15 mg/kg/day): “”
Prostate weight (mean % decrease) (rats; 1+ months, 150 mg/kg/day): “”
Prostate weight (mean % decrease) (rats; 1+ months, 1500 mg/kg/day): “”
Prostate weight (mean % decrease) (rats; 6+ months, 15 mg/kg/day): “”
Prostate weight (mean % decrease) (rats; 6+ months, 150 mg/kg/day): ^↓30%
Prostate weight (mean % decrease) (rats; 6+ months, 1500 mg/kg/day): ^↓34%
Prostate weight (mean % decrease) (rats; Male Fertility (3 months), 3 mg/kg/day): “”
Prostate weight (mean % decrease) (rats; Male Fertility (3 months), 30 mg/kg/day): ^↓23%
Prostate weight (mean % decrease) (rats; Male Fertility (3 months), 1000 mg/kg/day): ^↓39%
binding affinity for hAR compared to other nuclear hormone receptors [4]: > 500 fold
metabolism by 17-beta-Hydroxysteroid Dehydrogenase Type 2 class of enzymes [5]: not metabolized
PSA levels (PSA levels [6]; listed as OPK88004): significant reduction in PSA levels
PSA levels (PSA levels [6]; listed as OPK-88004): decrease in PSA levels
PSA (PSA levels [6]; Study GPEC, 1 mg and 5 mg for 12 weeks): not associated with increases in PSA
